Reference: ChEMBL document CHEMBL1201862, “PubChem BioAssay data set” (2004)
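Cells were grown in 96-well plates and exposed to each compound for 48 hours at five concentrations; endpoints were interpolated linearly between bracketing concentrations, or set to the highest concentration if not reached. GI50 = concentration required for 50% inhibition of growth.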 Activity calls are given as the source filed them. Cut-off read from the data, not from the text of the source: active = GI50 up to about 1.1 µM and inactive = higher.

Legend:
Experiment in all cases: NCI-60 cell line screen, 48 h
UACC-257 = system: UACC-257
LOX IMVI = system: LOX IMVI
A549 = system: A549
RPMI-8226 = system: RPMI-8226
Malme-3M = system: Malme-3M
A498 = system: A498
UACC-62 = system: UACC-62
SNB-75 = system: SNB-75
OVCAR-8 = system: OVCAR-8
SW-620 = system: SW-620
SF-268 = system: SF-268
CCRF-CEM = system: CCRF-CEM
HCT-116 = system: HCT-116
DLD-1 = system: DLD-1
HOP-62 = system: HOP-62
KM12 = system: KM12
HL-60 = system: HL-60
SNB-19 = system: SNB-19
SF-295 = system: SF-295
KM-20L2 = system: KM-20L2
HOP-18 = system: HOP-18
IGROV-1 = system: IGROV-1
NCI-H460 = system: NCI-H460
TK-10 = system: TK-10
SK-MEL-5 = system: SK-MEL-5
SF-539 = system: SF-539
RXF 631 = system: RXF 631
M19-MEL = system: M19-MEL
NCI-H522 = system: NCI-H522
SK-OV-3 = system: SK-OV-3
HT-29 = system: HT-29
HCT-15 = system: HCT-15
OVCAR-5 = system: OVCAR-5
UO-31 = system: UO-31
RXF 393 = system: RXF 393
OVCAR-4 = system: OVCAR-4
SK-MEL-2 = system: SK-MEL-2
OVCAR-3 = system: OVCAR-3
ACHN = system: ACHN
K562 = system: K562
SK-MEL-28 = system: SK-MEL-28
786-0 = system: 786-0
HCC 2998 = system: HCC 2998
HOP-92 = system: HOP-92
SNB-78 = system: SNB-78
DMS-273 = system: DMS-273
SN12C = system: SN12C
DMS-114 = system: DMS-114
CAKI-1 = system: CAKI-1
COLO 205 = system: COLO 205
MOLT-4 = system: MOLT-4
EKVX = system: EKVX
SR = system: SR
NCI-H226 = system: NCI-H226
LXFL 529 = system: LXFL 529
NCI-H23 = system: NCI-H23
U-251 = system: U-251
M14 = system: M14

Measured: GI50

Ic1cc2c(cc1C1SCCCS1)OCO2
> 100 µM: HCT-15
inactive: UACC-257 > 100 µM | LOX IMVI > 100 µM | A549 > 100 µM | RPMI-8226 > 100 µM | Malme-3M > 100 µM | A498 > 100 µM | UACC-62 > 100 µM | SNB-75 > 100 µM | OVCAR-8 > 100 µM | SW-620 > 100 µM | SF-268 > 100 µM | CCRF-CEM > 100 µM | HCT-116 > 100 µM | DLD-1 > 100 µM | HOP-62 > 100 µM | KM12 > 100 µM | HL-60 > 100 µM | SNB-19 > 100 µM | SF-295 > 100 µM | KM-20L2 > 100 µM | HOP-18 > 100 µM | IGROV-1 > 100 µM | NCI-H460 > 100 µM | TK-10 > 100 µM | SK-MEL-5 > 100 µM | SF-539 > 100 µM | RXF 631 > 100 µM | M19-MEL > 100 µM | NCI-H522 > 100 µM | SK-OV-3 > 100 µM | HT-29 > 100 µM | OVCAR-5 > 100 µM | UO-31 > 100 µM | RXF 393 > 100 µM | OVCAR-4 > 100 µM | SK-MEL-2 > 100 µM | OVCAR-3 > 100 µM | ACHN > 100 µM | K562 > 100 µM | SK-MEL-28 > 100 µM | 786-0 > 100 µM | HCC 2998 > 100 µM | HOP-92 > 100 µM | SNB-78 > 100 µM | DMS-273 > 100 µM | SN12C > 100 µM | DMS-114 > 100 µM | CAKI-1 > 100 µM | COLO 205 > 100 µM | MOLT-4 > 100 µM | EKVX > 100 µM | SR > 100 µM | NCI-H226 > 100 µM | LXFL 529 > 100 µM | NCI-H23 64.7 µM | U-251 > 100 µM | M14 > 100 µM

C#CC[C@]12CC(=O)CC[C@H]1CC(=O)C2
inactive: UACC-257 > 100 µM | A549 > 100 µM | RPMI-8226 > 100 µM | Malme-3M > 100 µM | A498 > 100 µM | UACC-62 > 100 µM | SNB-75 > 100 µM | OVCAR-8 > 100 µM | SW-620 > 100 µM | SF-268 > 100 µM | CCRF-CEM > 100 µM | HCT-116 > 100 µM | DLD-1 > 100 µM | HOP-62 > 100 µM | KM12 > 100 µM | HL-60 > 100 µM | SNB-19 > 100 µM | KM-20L2 > 100 µM | HOP-18 > 100 µM | IGROV-1 > 100 µM | NCI-H460 > 100 µM | TK-10 > 100 µM | SK-MEL-5 > 100 µM | SF-539 > 100 µM | RXF 631 > 100 µM | M19-MEL > 100 µM | NCI-H522 > 100 µM | SK-OV-3 > 100 µM | UO-31 > 100 µM | RXF 393 > 100 µM | OVCAR-4 > 100 µM | SK-MEL-2 > 100 µM | OVCAR-3 > 100 µM | ACHN > 100 µM | K562 > 100 µM | SK-MEL-28 > 100 µM | 786-0 > 100 µM | HCC 2998 > 100 µM | SNB-78 > 100 µM | DMS-273 > 100 µM | SN12C > 100 µM | CAKI-1 > 100 µM | COLO 205 > 100 µM | MOLT-4 > 100 µM | SR > 100 µM | NCI-H226 > 100 µM | LXFL 529 > 100 µM | U-251 > 100 µM | M14 > 100 µM
> 100 µM: HCT-15
